Reference: the supplement of paper PMC8882468

Key:
HCI-008 [1] = organoid from a HER2-enriched breast cancer xenograft; test: CTG-3D luminescence at 96 h relative to day-0 seeding control (ratio to day 0); higher = more growth / less cytotoxicity
Description: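 PDxO 3D drug screen (set 2), 8-point dose, 96 h; CTG-3D luminescence normalised to day-0 seeding control (mean of 4 wells each).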

HCI-008 [2] = test: CTG-3D luminescence at 96 h relative to day-0 seeding control (ratio to day 0); higher = more growth / less cytotoxicity; PDxO 3D drug screen (set 2), 96 h, CTG-3D normalised to day-0 seeding control.
HCI-025 = organoid from a breast cancer xenograft; test: as above
HCI-011.E2 = organoid from an ER-positive breast cancer xenograft; test: as above
HCI-027 = organoid from a triple-negative breast cancer xenograft; test: as above

CC/C(=C(\c1ccc(O)cc1)c1ccc(OCCN(C)C)cc1)c1ccccc1 [4-hydroxytamoxifen]
CTG-3D luminescence at 96 h, HCI-008 [1]
Conditions	12.5 pM	0.00025 µM	0.005 µM	0.1 µM	1 µM	10 µM	100 µM	625 fM
days in culture: 325	1.16	3.13	1.6	3.49	3.48	2.12	0.0259	1.52
days in culture: 340	1.38	1.51	1.18	1.09	1.46	–	0.00621	1.32
days in culture: 354	1.2	1.03	2.12	1.34	1.26	1.3	0.00452	0.999
days in culture: 382	1.86	1.74	1.28	1.63	0.792	1.56	0.0061	1.74

CC(=O)c1c(C)c2cnc(Nc3ccc(N4CCNCC4)cn3)nc2n(C2CCCC2)c1=O [palbociclib]
CTG-3D luminescence at 96 h
Conditions	12.5 pM	0.00025 µM	0.005 µM	0.1 µM	1 µM	10 µM	100 µM	625 fM
HCI-008 [2], days in culture: 325	1.14	1.96	2.03	2.74	3.58	2.05	0.962	1.8
HCI-008 [2], days in culture: 340	0.654	3.19	1.76	2.01	2.37	–	1.18	1.13
HCI-008 [2], days in culture: 354	1.29	1.41	2.34	1	1.11	0.979	1.21	0.693
HCI-008 [2], days in culture: 382	1.83	1.31	1.55	1.83	1.16	1.66	0.974	1.59
HCI-011.E2, days in culture: 74	2.34	2.11	2.43	2.43	1.74	2.51	1.52	2.09
HCI-025, days in culture: 175	1.84	2.51	1.75	1.97	2.37	2.28	1.24	1.97
HCI-025, days in culture: 189	2.77	1.41	2.23	1.9	1.78	1.42	0.673	3.4
HCI-025, days in culture: 212	2.24	1.43	1.94	1.29	0.809	2.39	2.52	2.45
HCI-025, days in culture: 224	1.84	1.83	1.88	1.26	2	2.17	1.17	1.33
HCI-027, days in culture: 145	1.41	2.02	1.64	1.26	1.55	0.841	0.458	1.58
HCI-027, days in culture: 158	1.35	1.77	2.1	1.52	0.941	0.942	0.608	3.32
HCI-027, days in culture: 164	2.57	1.87	1.48	1.63	1.33	1.31	0.892	2.8
HCI-027, days in culture: 176	3.61	2.85	1.73	2.1	1.82	0.641	0.373	2.61
HCI-027, days in culture: 186	1.11	1.93	2.5	2.42	0.412	1.4	0.411	1.67

HCI-011.E2
Conditions	CTG-3D luminescence at 96 h
12.5 pM	1.41
0.00025 µM	1.8
0.005 µM	1.29
0.1 µM	1.53
1 µM	1.49
10 µM	1.92
100 µM	1.44
625 fM	1.86

O=C(c1cc(Cc2n[nH]c(=O)c3ccccc23)ccc1F)N1CCN(C(=O)C2CC2)CC1 [olaparib]
CTG-3D luminescence at 96 h
Conditions	12.5 pM	0.00025 µM	0.005 µM	0.1 µM	1 µM	10 µM	100 µM	625 fM
HCI-008 [2], days in culture: 325	1.39	1.88	1.46	3.33	2.71	1.99	0.484	1.65
HCI-008 [2], days in culture: 340	1.45	2.1	1.84	1.46	1.67	–	0.958	1.34
HCI-008 [2], days in culture: 354	1.36	1	1.35	1.2	1.22	1.33	0.836	1.44
HCI-008 [2], days in culture: 382	1.49	1.46	1.23	2	0.89	0.955	0.204	1.8
HCI-011.E2, days in culture: 74	2.53	2.44	2.19	2.22	1.57	0.94	0.157	2.66
HCI-025, days in culture: 175	1.97	2.33	1.9	1.95	3.08	2.2	0.866	2.02
HCI-025, days in culture: 189	1.46	2.11	1.91	2.25	1.86	1.28	0.825	2.78
HCI-025, days in culture: 212	3.74	3.65	1.79	1.22	1.32	1.72	0.66	2
HCI-025, days in culture: 224	1.96	1.72	1.81	1.9	2.05	1.41	0.478	1.81
HCI-027, days in culture: 145	1.79	3.31	2.66	1.56	1.71	2.13	0.976	1.89
HCI-027, days in culture: 158	1.27	3.16	2.16	2.6	1.87	3.12	1.79	3.17
HCI-027, days in culture: 164	4.1	1.37	2.13	2.08	1.58	0.874	0.555	2.58
HCI-027, days in culture: 176	3.94	1.97	1.54	1.61	2.6	0.771	0.452	1.65
HCI-027, days in culture: 186	0.87	1.38	2.3	3.57	1.26	1.58	0.34	3.34

HCI-011.E2
Conditions	CTG-3D luminescence at 96 h
12.5 pM	1.58
0.00025 µM	1.55
0.005 µM	1.41
0.1 µM	1.95
1 µM	1.6
10 µM	1.14
100 µM	0.266
625 fM	2.1
